Experimental data reported in patent US8445444B2, “Compositions and methods for diagnosing, treating, and preventing prostate conditions” (Phigenix, Inc., priority 2007, dated 2013).
Entries after “also recorded” stand apart in the source; their conditions may differ.

Tests used:
Type in all cases: cell-based, human
LNCaP [1] = experiment: Phase contrast microscopy of cell growth; conditions: 48 h DEFB1 induction
Experimental: (§1) Microscopic Analysis: Cell morphology was analyzed by phase contrast microscopy. DU145, PC3 and LNCaP cells containing no vector, empty plasmid or DEFB1 plasmid were seeded onto 6 well culture plates (BD Falcon, USA). The following day plasmid-containing cells were induced for a period of 48 h with media containing 10 μM Ponasterone A, while control cells received fresh media. The cells were then viewed under an inverted Zeiss IM 35 microscope (Carl Zeiss, Germany). Phase contrast pictures of a field of cells were obtained using the SPOT Insight Mosaic 4.2 camera (Diagnostic Instruments, USA). Cells were examined by phase contrast microscopy under 32× magnification and digital images were stored as uncompressed TIFF files and exported into Photoshop CS software (Adobe Systems, San Jose, Calif.) for image processing and hard copy presentation.
(§2) Phase Contrast Microscopy: The effect of PAX2 knock-down on cell growth was analyzed by phase contrast microscopy. Here, 1-2×10^4 cells were seeded onto 6 well culture plates (BD Falcon, USA). The following day cells were treated with media only, negative control non-specific siRNA or PAX2 siRNA and allowed to incubate for six days. The cells were then viewed under an inverted Zeiss IM 35 microscope (Carl Zeiss, Germany) at 32× magnification. Phase contrast pictures of a field of cells were obtained using the SPOT Insight Mosaic 4.2 camera (Diagnostic Instruments, USA).
(§3) Phase contrast microscopy: The effect of PAX2 knockdown on cell number was analyzed by phase contrast microscopy. Here, 1-2×10^4 cells were seeded overnight onto six-well culture plates (BD Falcon, USA). Next the cells were treated with media only, negative control non-specific siRNA or PAX2 siRNA and allowed to incubate for 6 days. The cells were then viewed under an inverted Zeiss IM 35 microscope (Carl Zeiss, Germany). Phase contrast pictures of a field of cells were obtained using the SPOT Insight Mosaic 4.2 camera (Diagnostic Instruments, USA).

DU145 [2] = experiment: Phase contrast microscopy of cell growth; conditions: DU145, 48 h DEFB1 induction
Experimental: as §1, §2, §3

PC3 [3] = experiment: Phase contrast microscopy of cell growth; conditions: PC3, 48 h DEFB1 induction
Experimental: as §1, §2, §3

DU145 [4] = experiment: Annexin V-FITC/propidium iodide flow cytometry
Experimental: (§4) Flow Cytometry: PC3 and DU145 cells co-transfected with the DEFB1 expression system were grown in 60-mm dishes and induced for 12, 24, and 48 hours with 10 μM Ponasterone A. Following each incubation period, the medium was collected from the plates (to retain any detached cells) and combined with PBS used to wash the plates. The remaining attached cells were harvested by trypsinization and combined with the detached cells and PBS. The cells were then pelleted at 4° C. (500×g) for 5 min, washed twice in PBS, and resuspended in 100 ul of 1× Annexin binding buffer (0.1 M Hepes/NaOH at pH 7.4, 1.4 M NaCl, 25 mM CaCl2) containing 5 μl of Annexin V-FITC and 5 μl of PI. The cells were incubated at RT for 15 min in the dark, then diluted with 400 μl of 1× Annexin binding buffer and analyzed by FACscan (Becton Dickinson, San Jose, Calif.). All reactions were performed three times.
(§5) Flow cytometry: PC3 and DU145 cells transfected with the hBD-1 expression system were grown in 60-mm dishes and induced for 12, 24, and 48 h with 10 μM Pon A. Following each incubation period, the medium was collected from the plates (to retain any detached cells) and combined with PBS used to wash the plates. The remaining attached cells were harvested by trypsinization and combined with the detached cells and PBS. The cells were then pelleted at 4° C. (500×g) for 5 min, washed twice in PBS, and resuspended in 100 μl, of 1× Annexin binding buffer (0.1 M Hepes/NaOH at pH 7.4, 1.4 M NaCl, 25 mM CaCl2) containing […] Annexin V-FITC and 5 μl of PI. The cells were incubated at RT for 15 min in the dark, then diluted with 400 μl of 1× Annexin binding buffer and analyzed by FACscan (Becton Dickinson, San Jose, Calif.). All reactions were performed three times.

PC3 [5] = experiment: Annexin V-FITC/propidium iodide flow cytometry
Experimental: as §4, §5

LNCaP [6] = experiment: Pan-caspase detection (FAM-VAD-FMK, confocal); conditions: 24 h DEFB1 (hBD-1) induction
PC3/AR+ = experiment: MTT cell viability assay; conditions: PC3/AR+ compared with PC3
Experimental: MTT cell viability assay: To examine the effects of hBD-1 on cell growth, metabolic 3-[4,5-dimethylthiazol-2-yl]-2,5-diphenyl tetrazolium bromide (MTT) assay was performed. DU145, LNCaP, PC3 and PC3/AR+ cells co-transfected with pvgRXR plasmid and pIND/hBD-1 construct or control pvgRXR plasmid were seeded onto a 96-well plate at 1-5×10^3 cells per well. Twenty-four hours after seeding, fresh growth medium was added containing 10 μM Pon A daily to induce hBD-1 expression for 24, 48 and 72 h after which the MTT assay was performed according to the manufacturer's instructions (Promega). Reactions were performed three times in triplicate.

Substance: DEFB1: human beta defensin-1 expressed from the ecdysone inducible pIND/DEFB1 construct, induced with Ponasterone A (DHYNCVSSGGQCLYSACPIFTKIQGTCYRGKAKCCK; UniProt P60022 33-68, looked up)
- cell proliferation (LNCaP [1]): no effect on cell proliferation
- cell number (DU145 [2]): significant reduction in cell number
- cell number (PC3 [3]): significant reduction in cell number
- number of apoptotic cells (lower and upper right quadrants) (DU145 [4]; DU145, 12 h DEFB1 (hBD-1) induction): 12%
- number of apoptotic cells (lower and upper right quadrants) (DU145 [4]; DU145, 24 h): 34%
- number of apoptotic cells (lower and upper right quadrants) (DU145 [4]; DU145, 48 h): 59%
- number of apoptotic cells (lower and upper right quadrants) (PC3 [5]; PC3, 12 h DEFB1 (hBD-1) induction): 10%
- number of apoptotic cells (lower and upper right quadrants) (PC3 [5]; PC3, 24 h): 20%
- number of apoptotic cells (lower and upper right quadrants) (PC3 [5]; PC3, 48 h): 44%
- caspase activity (LNCaP [6]): No caspase activity was detected; also recorded: no green staining
- caspase activity (LNCaP [6]; listed as hBD-1): no green staining
- hBD-1 cytotoxicity with ectopic AR expression (PC3/AR+): no difference between PC3/AR+ and PC3 cells
